Reference: US10294202B2, “Pyrrolidinones as herbicides” (FMC Corporation, priority 2013, dated 2019)

How the values were obtained:
[1] = test system: rice; assay: Test B flooded paddy test; assay type: in vivo, Oryza sativa; settings: Flood, scale of 0 to 100 where 0 is no effect and 100 is complete control
Procedure, shortened: (§1)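 Visual ratings from 0, meaning no effect, up to 100, meaning complete control, were made by comparison with untreated controls 13 to 15 days after treatment. Test compounds went straight into floodwater standing 3 cm over the soil of pots holding 2-leaf seedlings.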

[2] = test system: ducksalad; assay: Test B flooded paddy test; assay type: in vivo, Heteranthera limosa; settings: Flood, scale of 0 to 100 where 0 is no effect and 100 is complete control
Procedure, shortened: as §1

[3] = test system: wheat (winter wheat); assay: Test C pre-/postemergence herbicide test; assay type: in vivo, Triticum aestivum
Procedure, shortened: (§2)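 Test compounds, formulated in a surfactant-containing non-phytotoxic solvent blend, are applied to seeded loam/sand soil (preemergence) and to young plants at the 1- to 4-leaf stage in peat-based medium (postemergence). Plants stay 13 to 15 days under greenhouse conditions, then are scored visually relative to controls, 0 = no effect, 100 = complete control.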

[4] = test system: corn; assay: Test C pre-/postemergence herbicide test; assay type: in vivo, Zea mays
Procedure, shortened: as §2

[5] = test system: morningglory; assay: Test C pre-/postemergence herbicide test; assay type: in vivo, Ipomoea coccinea
Procedure, shortened: as §2

[6] = test system: pigweed; assay: Test C pre-/postemergence herbicide test; assay type: in vivo, Amaranthus retroflexus
Procedure, shortened: as §2

[7] = test system: soybean; assay: Test C pre-/postemergence herbicide test; assay type: in vivo, Glycine max
Procedure, shortened: as §2

[8] = test system: barnyardgrass; assay: Test C pre-/postemergence herbicide test; assay type: in vivo, Echinochloa crus-galli
Procedure, shortened: as §2

[9] = test system: oilseed rape; assay: Test C pre-/postemergence herbicide test; assay type: in vivo, Brassica napus
Procedure, shortened: as §2

[10] = test system: waterhemp; assay: Test C pre-/postemergence herbicide test; assay type: in vivo, Amaranthus rudis
Procedure, shortened: as §2

[11] = test system: oat, wild; assay: Test C pre-/postemergence herbicide test; assay type: in vivo, Avena fatua
Procedure, shortened: as §2

[12] = test system: velvetleaf; assay: Test C pre-/postemergence herbicide test; assay type: in vivo, Abutilon theophrasti
Procedure, shortened: as §2

[13] = Postemergence, 31 g ai/ha, scale 0 to 100 (0 no effect, 100 complete control)
[14] = Postemergence, 62 g ai/ha, scale 0 (no effect) to 100 (complete control)
[15] = Postemergence, 125 g ai/ha, scale 0 to 100 (0 no effect, 100 complete control)
[16] = Postemergence, 250 g ai/ha, scale 0 to 100 (0 no effect, 100 complete control)
[17] = Preemergence, 31 g ai/ha, scale 0 to 100, 0 is no effect and 100 is complete control
[18] = Preemergence, 62 g ai/ha, scale 0 to 100
[19] = Preemergence, 125 g ai/ha, scale 0 to 100 (0 no effect, 100 complete control)
[20] = Postemergence, 16 g ai/ha, scale 0 to 100 (0 no effect, 100 complete control)
[21] = Postemergence, 31 g ai/ha, scale 0 (no effect) to 100 (complete control)
[22] = Postemergence, 62 g ai/ha, scale 0 to 100 (0 no effect, 100 complete control)
[23] = Preemergence, 16 g ai/ha, scale 0 to 100
[24] = Preemergence, 31 g ai/ha, scale 0 to 100 (0 no effect, 100 complete control)

O=C1NCC(c2ccc(F)cc2)C1C(=O)Nc1ccc(F)c(F)c1F (racemic) [Compound 120]
Plant response rating, Rice ([1]; 500 g ai/ha): 20 | Plant response rating, Ducksalad ([2]; 500 g ai/ha): 100 | Plant response rating, Wheat [3, 13]: 0 | Plant response rating, Wheat [3, 14]: 0 | Plant response rating, Wheat [3, 15]: 0 | Plant response rating, Wheat [3, 16]: 0 | Wheat plant response rating [3, 17]: 10 | Plant response rating, Wheat [3, 18]: 35 | Plant response rating, Wheat [3, 19]: 30 | Plant response rating (scale of 0 to 100), Wheat ([3]; Preemergence, 250 g ai/ha): 85 | Plant response rating, Corn [4, 13]: 0 | Plant response rating, Corn [4, 14]: 0 | Plant response rating, Corn [4, 15]: 0 | Plant response rating, Corn [4, 16]: 0 | Corn plant response rating [4, 17]: 0 | Plant response rating, Corn [4, 18]: 0 | Plant response rating, Corn [4, 19]: 20 | Plant response rating (scale of 0 to 100), Corn ([4]; Preemergence, 250 g ai/ha): 65 | Plant response rating, Morningglory [5, 13]: 0 | Plant response rating, Morningglory [5, 14]: 5 | Plant response rating, Morningglory [5, 15]: 0 | Plant response rating, Morningglory [5, 16]: 5 | Morningglory plant response rating [5, 17]: 0 | Plant response rating, Morningglory [5, 18]: 0 | Plant response rating, Morningglory [5, 19]: 35 | Plant response rating (scale of 0 to 100), Morningglory ([5]; Preemergence, 250 g ai/ha): 40 | Plant response rating, Pigweed [6, 13]: 5 | Plant response rating, Pigweed [6, 14]: 20 | Plant response rating, Pigweed [6, 15]: 40 | Plant response rating, Pigweed [6, 16]: 60 | Pigweed plant response rating [6, 17]: 50 | Plant response rating, Pigweed [6, 18]: 45 | Plant response rating, Pigweed [6, 19]: 65 | Plant response rating (scale of 0 to 100), Pigweed ([6]; Preemergence, 250 g ai/ha): 80 | Plant response rating, Soybean [7, 13]: 0 | Plant response rating, Soybean [7, 14]: 0 | Plant response rating, Soybean [7, 15]: 0 | Plant response rating, Soybean [7, 16]: 0 | Soybean plant response rating [7, 17]: 0 | Plant response rating, Soybean [7, 18]: 0 | Plant response rating, Soybean [7, 19]: 0 | Plant response rating (scale of 0 to 100), Soybean ([7]; Preemergence, 250 g ai/ha): 0 | Plant response rating, Barnyardgrass [8, 13]: 0 | Plant response rating, Barnyardgrass [8, 14]: 30 | Plant response rating, Barnyardgrass [8, 15]: 40 | Plant response rating, Barnyardgrass [8, 16]: 65 | Barnyardgrass plant response rating [8, 17]: 85 | Plant response rating, Barnyardgrass [8, 18]: 90 | Plant response rating, Barnyardgrass [8, 19]: 95 | Plant response rating (scale of 0 to 100; 0 is no effect, 100 is complete control), Barnyardgrass ([8]; Preemergence, 250 g ai/ha): 98 | Plant response rating, Oilseed Rape [9, 13]: 0 | Plant response rating, Oilseed Rape [9, 14]: 0 | Plant response rating, Oilseed Rape [9, 15]: 0 | Plant response rating, Oilseed Rape [9, 16]: 0 | Oilseed Rape plant response rating [9, 17]: 0 | Plant response rating, Oilseed Rape [9, 18]: 0 | Plant response rating, Oilseed Rape [9, 19]: 70 | Plant response rating (scale of 0 to 100), Oilseed Rape ([9]; Preemergence, 250 g ai/ha): 90 | Plant response rating, Waterhemp [10, 13]: 0 | Plant response rating, Waterhemp [10, 14]: 0 | Plant response rating, Waterhemp [10, 15]: 15 | Plant response rating, Waterhemp [10, 16]: 20 | Waterhemp plant response rating [10, 17]: 0 | Plant response rating, Waterhemp [10, 18]: 60 | Plant response rating, Waterhemp [10, 19]: 75 | Plant response rating (scale of 0 to 100), Waterhemp ([10]; Preemergence, 250 g ai/ha): 85 | Plant response rating, Oat, Wild [11, 13]: 0 | Plant response rating, Oat, Wild [11, 14]: 0 | Plant response rating, Oat, Wild [11, 15]: 0 | Plant response rating, Oat, Wild [11, 16]: 0 | Plant response rating, Velvetleaf [12, 13]: 25 | Plant response rating, Velvetleaf [12, 14]: 0 | Plant response rating, Velvetleaf [12, 15]: 5 | Plant response rating, Velvetleaf [12, 16]: 25 | Velvetleaf plant response rating [12, 17]: 0 | Plant response rating, Velvetleaf [12, 18]: 20 | Plant response rating, Velvetleaf [12, 19]: 35 | Plant response rating (scale of 0 to 100), Velvetleaf ([12]; Preemergence, 250 g ai/ha): 40

O=C1NCC(c2cc(F)c(F)c(F)c2)C1C(=O)Nc1cccc(F)c1F (centres unmarked) [Compound 48]
Plant response rating, Rice ([1]; 250 g ai/ha): 20 | Plant response rating, Ducksalad ([2]; 250 g ai/ha): 100 | Plant response rating, Wheat [3, 20]: 0 | Plant response rating, Wheat [3, 21]: 0 | Plant response rating, Wheat [3, 22]: 0 | Plant response rating, Wheat [3, 15]: 5 | Plant response rating, Wheat [3, 18]: 20 | Plant response rating, Wheat [3, 19]: 45 | Plant response rating, Wheat [3, 23]: 0 | Plant response rating, Corn [4, 20]: 0 | Plant response rating, Corn [4, 21]: 5 | Plant response rating, Corn [4, 22]: 5 | Plant response rating, Corn [4, 15]: 5 | Plant response rating, Corn [4, 18]: 20 | Plant response rating, Corn [4, 19]: 20 | Plant response rating, Corn [4, 23]: 0 | Corn plant response rating [4, 24]: 0 | Plant response rating, Morningglory [5, 20]: 10 | Plant response rating, Morningglory [5, 21]: 10 | Plant response rating, Morningglory [5, 22]: 10 | Plant response rating, Morningglory [5, 15]: 10 | Plant response rating, Morningglory [5, 18]: 0 | Plant response rating, Morningglory [5, 19]: 15 | Plant response rating, Morningglory [5, 23]: 0 | Plant response rating, Pigweed [6, 20]: 10 | Plant response rating, Pigweed [6, 21]: 25 | Plant response rating, Pigweed [6, 22]: 30 | Plant response rating, Pigweed [6, 15]: 40 | Plant response rating, Pigweed [6, 18]: 0 | Plant response rating, Pigweed [6, 19]: 0 | Plant response rating, Pigweed [6, 23]: 0 | Plant response rating, Soybean [7, 20]: 5 | Plant response rating, Soybean [7, 21]: 10 | Plant response rating, Soybean [7, 22]: 10 | Plant response rating, Soybean [7, 15]: 10 | Plant response rating, Soybean [7, 18]: 10 | Plant response rating, Soybean [7, 19]: 15 | Plant response rating, Soybean [7, 23]: 10 | Plant response rating, Oat, Wild [11, 20]: 0 | Plant response rating, Oat, Wild [11, 21]: 0 | Plant response rating, Oat, Wild [11, 22]: 0 | Plant response rating, Oat, Wild [11, 15]: 0 | Plant response rating, Oat, Wild [11, 18]: 0 | Plant response rating, Oat, Wild [11, 19]: 10 | Plant response rating, Oat, Wild [11, 23]: 0 | Plant response rating, Velvetleaf [12, 20]: 0 | Plant response rating, Velvetleaf [12, 21]: 0 | Plant response rating, Velvetleaf [12, 22]: 15 | Plant response rating, Velvetleaf [12, 15]: 35 | Plant response rating, Velvetleaf [12, 18]: 0 | Plant response rating, Velvetleaf [12, 19]: 0 | Plant response rating, Velvetleaf [12, 23]: 0

O=C1NCC(c2ccc(F)c(Cl)c2)C1C(=O)Nc1ccccc1F (centres unmarked) [Compound 60]
Plant response rating, Rice ([1]; 250 g ai/ha): 0 | Plant response rating, Ducksalad ([2]; 250 g ai/ha): 90 | Plant response rating, Wheat [3, 21]: 0 | Plant response rating, Wheat [3, 22]: 0 | Plant response rating, Wheat [3, 15]: 5 | Plant response rating, Wheat [3, 18]: 0 | Plant response rating, Wheat [3, 19]: 0 | Plant response rating, Corn [4, 21]: 0 | Plant response rating, Corn [4, 22]: 0 | Plant response rating, Corn [4, 15]: 0 | Plant response rating, Corn [4, 18]: 10 | Plant response rating, Corn [4, 19]: 20 | Corn plant response rating [4, 24]: 0 | Plant response rating, Morningglory [5, 21]: 5 | Plant response rating, Morningglory [5, 22]: 10 | Plant response rating, Morningglory [5, 15]: 10 | Plant response rating, Morningglory [5, 18]: 10 | Plant response rating, Morningglory [5, 19]: 10 | Plant response rating, Pigweed [6, 22]: 20 | Plant response rating, Pigweed [6, 15]: 20 | Plant response rating, Pigweed [6, 18]: 10 | Plant response rating, Pigweed [6, 19]: 20 | Plant response rating, Soybean [7, 21]: 0 | Plant response rating, Soybean [7, 22]: 0 | Plant response rating, Soybean [7, 15]: 5 | Plant response rating, Soybean [7, 18]: 25 | Plant response rating, Soybean [7, 19]: 25 | Plant response rating, Oat, Wild [11, 21]: 0 | Plant response rating, Oat, Wild [11, 22]: 0 | Plant response rating, Oat, Wild [11, 15]: 0 | Plant response rating, Oat, Wild [11, 18]: 0 | Plant response rating, Oat, Wild [11, 19]: 5 | Plant response rating, Velvetleaf [12, 21]: 0 | Plant response rating, Velvetleaf [12, 22]: 0 | Plant response rating, Velvetleaf [12, 15]: 5 | Plant response rating, Velvetleaf [12, 18]: 0 | Plant response rating, Velvetleaf [12, 19]: 0
